Measurements published in the supplement of paper PMC10307832.

Tests used:
Assay in all cases: relative viability (nuclei count vs DMSO), 5 days (fraction); higher = more cells survive
Decitabine + Luminespib = compound: Nc1ncn([C@H]2C[C@H](O)[C@@H](CO)O2)c(=O)n1 [Decitabine] + CCNC(=O)c1noc(-c2cc(C(C)C)c(O)cc2O)c1-c1ccc(CN2CCOCC2)cc1 [Luminespib] (partner 0.01 µM)
Method in brief: (§1)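 After 5 days of treatment, lung cancer cells in 1536-well plates were fixed and stained in a single step (final 0.05% Triton X-100, 1% formaldehyde, 1 ug/ml Hoechst) and their nuclei counted on 4× images. Treatment had been applied by pin tool the day after seeding as one drug alone or as a fixed anchor-drug dose with five library-drug doses (not always all listed) in √10 steps. Relative viability is the nuclei count of treated wells divided by that of vehicle wells, and values are medians of duplicate plates.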

Decitabine + Bortezomib = compound: Nc1ncn([C@H]2C[C@H](O)[C@@H](CO)O2)c(=O)n1 [Decitabine] + CC(C)C[C@H](NC(=O)[C@H](Cc1ccccc1)NC(=O)c1cnccn1)B(O)O [Bortezomib] (partner 0.002 µM)
Method in brief: as §1

[1] = compound: O=C(C[C@H]1NCCC[C@@H]1O)Cn1cnc2cc(Br)c(Cl)cc2c1=O (racemic) [Halofuginone] + Nc1ncn([C@H]2C[C@H](O)[C@@H](CO)O2)c(=O)n1 [Decitabine] (partner 2 µM)
Method in brief: as §1

Cediranib + Phenformin = compound: COc1cc2c(Oc3ccc4[nH]c(C)cc4c3F)ncnc2cc1OCCCN1CCCC1 [Cediranib] + N=C(N)NC(=N)NCCc1ccccc1 [Phenformin] (partner 250 µM)
Method in brief: as §1

Cell Line: 201T
- relative viability (Decitabine + Luminespib; first compound 0.04 µM): 0.984
- relative viability (Decitabine + Luminespib; first compound 0.1265 µM): 0.987
- relative viability (Decitabine + Luminespib; first compound 0.4 µM): 1.07
- relative viability (Decitabine + Luminespib; first compound 4 µM): 0.75
- relative viability (Decitabine + Bortezomib; first compound 0.04 µM): 1.11
- relative viability (Decitabine + Bortezomib; first compound 0.1265 µM): 1.09
- relative viability (Decitabine + Bortezomib; first compound 0.4 µM): 1.15
- relative viability (Decitabine + Bortezomib; first compound 1.265 µM): 1
- relative viability (Decitabine + Bortezomib; first compound 4 µM): 1.03
- relative viability ([1]; first compound 0.001 µM): 0.844
- relative viability ([1]; first compound 0.003162 µM): 0.896
- relative viability ([1]; first compound 0.01 µM): 0.857
- relative viability ([1]; first compound 0.03162 µM): 0.792
- relative viability ([1]; first compound 0.1 µM): 0.845
- relative viability (Cediranib + Phenformin; first compound 0.04 µM): 0.454
- relative viability (Cediranib + Phenformin; first compound 0.1265 µM): 0.587
- relative viability (Cediranib + Phenformin; first compound 0.4 µM): 0.422
- relative viability (Cediranib + Phenformin; first compound 1.265 µM): 0.483
- relative viability (Cediranib + Phenformin; first compound 4 µM): 0.41

Cell Line: A549
- relative viability ([1]; first compound 0.001 µM): 0.338
- relative viability ([1]; first compound 0.003162 µM): 0.278
- relative viability ([1]; first compound 0.01 µM): 0.293
- relative viability ([1]; first compound 0.03162 µM): 0.257
- relative viability ([1]; first compound 0.1 µM): 0.258
- relative viability (Cediranib + Phenformin; first compound 0.04 µM): 0.135
- relative viability (Cediranib + Phenformin; first compound 0.1265 µM): 0.121
- relative viability (Cediranib + Phenformin; first compound 0.4 µM): 0.211
- relative viability (Cediranib + Phenformin; first compound 1.265 µM): 0.153
- relative viability (Cediranib + Phenformin; first compound 4 µM): 0.212

Cell Line: A-427
- relative viability (Decitabine + Luminespib; first compound 0.04 µM): 0.65
- relative viability (Decitabine + Luminespib; first compound 0.1265 µM): 0.466
- relative viability (Decitabine + Luminespib; first compound 0.4 µM): 0.303
- relative viability (Decitabine + Luminespib; first compound 1.265 µM): 0.262
- relative viability (Decitabine + Luminespib; first compound 4 µM): 0.227
- relative viability (Decitabine + Bortezomib; first compound 0.04 µM): 0.769
- relative viability (Decitabine + Bortezomib; first compound 0.1265 µM): 0.571
- relative viability (Decitabine + Bortezomib; first compound 0.4 µM): 0.247
- relative viability (Decitabine + Bortezomib; first compound 1.265 µM): 0.271
- relative viability (Decitabine + Bortezomib; first compound 4 µM): 0.242
- relative viability ([1]; first compound 0.001 µM): 0.626
- relative viability ([1]; first compound 0.003162 µM): 0.596
- relative viability ([1]; first compound 0.01 µM): 0.541
- relative viability ([1]; first compound 0.03162 µM): 0.564
- relative viability ([1]; first compound 0.1 µM): 0.52
- relative viability (Cediranib + Phenformin; first compound 0.04 µM): 0.346
- relative viability (Cediranib + Phenformin; first compound 0.4 µM): 0.228
- relative viability (Cediranib + Phenformin; first compound 1.265 µM): 0.308
- relative viability (Cediranib + Phenformin; first compound 4 µM): 0.253

Cell Line: ABC-1
- relative viability (Decitabine + Luminespib; first compound 0.1265 µM): 0.807
- relative viability (Decitabine + Luminespib; first compound 0.4 µM): 0.521
- relative viability (Decitabine + Luminespib; first compound 1.265 µM): 0.345
- relative viability (Decitabine + Luminespib; first compound 4 µM): 0.331
- relative viability (Decitabine + Bortezomib; first compound 0.04 µM): 0.286
- relative viability (Decitabine + Bortezomib; first compound 0.1265 µM): 0.239
- relative viability (Decitabine + Bortezomib; first compound 0.4 µM): 0.315
- relative viability (Decitabine + Bortezomib; first compound 1.265 µM): 0.23
- relative viability (Decitabine + Bortezomib; first compound 4 µM): 0.228
- relative viability ([1]; first compound 0.001 µM): 1.11
- relative viability ([1]; first compound 0.003162 µM): 1.39
- relative viability ([1]; first compound 0.01 µM): 0.926
- relative viability ([1]; first compound 0.03162 µM): 1.26
- relative viability ([1]; first compound 0.1 µM): 1.04
- relative viability (Cediranib + Phenformin; first compound 0.04 µM): 0.226
- relative viability (Cediranib + Phenformin; first compound 0.1265 µM): 0.294
- relative viability (Cediranib + Phenformin; first compound 0.4 µM): 0.243
- relative viability (Cediranib + Phenformin; first compound 4 µM): 0.241

Cell Line: BEN
- relative viability (Decitabine + Luminespib; first compound 0.04 µM): 0.332
- relative viability (Decitabine + Luminespib; first compound 0.1265 µM): 0.373
- relative viability (Decitabine + Luminespib; first compound 0.4 µM): 0.243
- relative viability (Decitabine + Luminespib; first compound 1.265 µM): 0.282
- relative viability (Decitabine + Luminespib; first compound 4 µM): 0.242
- relative viability (Decitabine + Bortezomib; first compound 0.04 µM): 0.779
- relative viability (Decitabine + Bortezomib; first compound 0.1265 µM): 0.779
- relative viability (Decitabine + Bortezomib; first compound 0.4 µM): 0.539
- relative viability (Decitabine + Bortezomib; first compound 1.265 µM): 0.427
- relative viability (Decitabine + Bortezomib; first compound 4 µM): 0.481
- relative viability ([1]; first compound 0.001 µM): 0.719
- relative viability ([1]; first compound 0.003162 µM): 0.743
- relative viability ([1]; first compound 0.01 µM): 0.754
- relative viability ([1]; first compound 0.03162 µM): 0.778
- relative viability ([1]; first compound 0.1 µM): 0.561
- relative viability (Cediranib + Phenformin; first compound 0.04 µM): 0.266
- relative viability (Cediranib + Phenformin; first compound 0.4 µM): 0.258
- relative viability (Cediranib + Phenformin; first compound 1.265 µM): 0.236
- relative viability (Cediranib + Phenformin; first compound 4 µM): 0.253

Cell Line: CAL-12T
- relative viability (Decitabine + Luminespib; first compound 0.04 µM): 0.612
- relative viability (Decitabine + Luminespib; first compound 0.1265 µM): 0.359
- relative viability (Decitabine + Luminespib; first compound 1.265 µM): 0.298
- relative viability (Decitabine + Luminespib; first compound 4 µM): 0.249
- relative viability (Decitabine + Bortezomib; first compound 0.04 µM): 0.828
- relative viability (Decitabine + Bortezomib; first compound 0.1265 µM): 1.01
- relative viability (Decitabine + Bortezomib; first compound 0.4 µM): 0.535
- relative viability (Decitabine + Bortezomib; first compound 1.265 µM): 0.558
- relative viability (Decitabine + Bortezomib; first compound 4 µM): 0.543
- relative viability (Cediranib + Phenformin; first compound 0.04 µM): 0.618
- relative viability (Cediranib + Phenformin; first compound 0.1265 µM): 0.641
- relative viability (Cediranib + Phenformin; first compound 0.4 µM): 0.597
- relative viability (Cediranib + Phenformin; first compound 1.265 µM): 0.627
- relative viability (Cediranib + Phenformin; first compound 4 µM): 0.648

Cell Line: COR-L23
- relative viability (Decitabine + Luminespib; first compound 0.04 µM): 0.331
- relative viability (Decitabine + Luminespib; first compound 0.1265 µM): 0.402
- relative viability (Decitabine + Luminespib; first compound 0.4 µM): 0.298
- relative viability (Decitabine + Luminespib; first compound 1.265 µM): 0.222
- relative viability (Decitabine + Luminespib; first compound 4 µM): 0.148
- relative viability (Decitabine + Bortezomib; first compound 0.04 µM): 0.695
- relative viability (Decitabine + Bortezomib; first compound 0.1265 µM): 0.703
- relative viability (Decitabine + Bortezomib; first compound 0.4 µM): 0.42
- relative viability (Decitabine + Bortezomib; first compound 1.265 µM): 0.316
- relative viability (Decitabine + Bortezomib; first compound 4 µM): 0.234
- relative viability ([1]; first compound 0.001 µM): 0.518
- relative viability ([1]; first compound 0.003162 µM): 0.511
- relative viability ([1]; first compound 0.01 µM): 0.421
- relative viability ([1]; first compound 0.03162 µM): 0.465
- relative viability ([1]; first compound 0.1 µM): 0.217
- relative viability (Cediranib + Phenformin; first compound 0.04 µM): 0.452
- relative viability (Cediranib + Phenformin; first compound 0.1265 µM): 0.39
- relative viability (Cediranib + Phenformin; first compound 0.4 µM): 0.406
- relative viability (Cediranib + Phenformin; first compound 1.265 µM): 0.405
- relative viability (Cediranib + Phenformin; first compound 4 µM): 0.482

Cell Line: COR-L 105
- relative viability (Decitabine + Luminespib; first compound 0.04 µM): 0.561
- relative viability (Decitabine + Luminespib; first compound 0.1265 µM): 0.517
- relative viability (Decitabine + Luminespib; first compound 0.4 µM): 0.714
- relative viability (Decitabine + Luminespib; first compound 1.265 µM): 0.469
- relative viability (Decitabine + Luminespib; first compound 4 µM): 0.571
- relative viability (Decitabine + Bortezomib; first compound 0.04 µM): 0.463
- relative viability (Decitabine + Bortezomib; first compound 0.1265 µM): 0.65
- relative viability (Decitabine + Bortezomib; first compound 0.4 µM): 0.378
- relative viability (Decitabine + Bortezomib; first compound 1.265 µM): 0.494
- relative viability (Decitabine + Bortezomib; first compound 4 µM): 0.422
- relative viability ([1]; first compound 0.001 µM): 0.673
- relative viability ([1]; first compound 0.003162 µM): 0.791
- relative viability ([1]; first compound 0.01 µM): 0.63
- relative viability ([1]; first compound 0.03162 µM): 0.598
- relative viability ([1]; first compound 0.1 µM): 0.568
- relative viability (Cediranib + Phenformin; first compound 0.04 µM): 0.4
- relative viability (Cediranib + Phenformin; first compound 0.1265 µM): 0.58
- relative viability (Cediranib + Phenformin; first compound 0.4 µM): 0.497
- relative viability (Cediranib + Phenformin; first compound 1.265 µM): 0.519
- relative viability (Cediranib + Phenformin; first compound 4 µM): 0.523

Cell Line: Calu-6
- relative viability (Decitabine + Bortezomib; first compound 0.04 µM): 0.853
- relative viability (Decitabine + Bortezomib; first compound 0.1265 µM): 0.67
- relative viability (Decitabine + Bortezomib; first compound 0.4 µM): 0.43
- relative viability (Decitabine + Bortezomib; first compound 1.265 µM): 0.373
- relative viability (Decitabine + Bortezomib; first compound 4 µM): 0.321

Cell Line: ChaGo-K-1
- relative viability (Decitabine + Luminespib; first compound 0.04 µM): 0.584
- relative viability (Decitabine + Luminespib; first compound 0.1265 µM): 0.487
- relative viability (Decitabine + Luminespib; first compound 0.4 µM): 0.33
- relative viability (Decitabine + Luminespib; first compound 1.265 µM): 0.277
- relative viability (Decitabine + Luminespib; first compound 4 µM): 0.39
- relative viability (Decitabine + Bortezomib; first compound 0.04 µM): 0.768
- relative viability (Decitabine + Bortezomib; first compound 0.1265 µM): 0.756
- relative viability (Decitabine + Bortezomib; first compound 0.4 µM): 0.579
- relative viability (Decitabine + Bortezomib; first compound 1.265 µM): 0.585
- relative viability (Decitabine + Bortezomib; first compound 4 µM): 0.566
- relative viability ([1]; first compound 0.001 µM): 0.548
- relative viability ([1]; first compound 0.003162 µM): 0.531
- relative viability ([1]; first compound 0.01 µM): 0.474
- relative viability ([1]; first compound 0.03162 µM): 0.532
- relative viability ([1]; first compound 0.1 µM): 0.532
- relative viability (Cediranib + Phenformin; first compound 0.04 µM): 0.486
- relative viability (Cediranib + Phenformin; first compound 0.1265 µM): 0.361
- relative viability (Cediranib + Phenformin; first compound 0.4 µM): 0.452
- relative viability (Cediranib + Phenformin; first compound 1.265 µM): 0.564
- relative viability (Cediranib + Phenformin; first compound 4 µM): 0.576
